Assay results as given in publication PMC8786148, “The effects of magainin 2-derived and rationally designed antimicrobial peptides on Mycoplasma pneumoniae” (PLoS ONE, 2022).

Legend:
[1] = test system: Mycoplasma pneumoniae FH; experiment: Colorimetric assay (absorbance at 560 nm), strain FH; settings: initial 10^5 CFU/mL, 0% CO2, up to 30 μmol/L
[2] = test system: Mycoplasma pneumoniae FH; experiment: Biofilm assay (crystal violet, absorbance at 550 nm), strain FH; settings: initial 10^5 CFU/mL, 0% CO2, 6-8 days at 37°C, p < 0.005, Shirley-Williams test
[3] = test system: Mannheimia haemolytica; parameters: method as in PMID 29771981; settings: bovine pathogen; cited from earlier work
[4] = test system: M. pneumoniae strains FH, M52, Mac, Bru, and M129-B7; experiment: Propidium iodide (PI) uptake assay, membrane disruption; format: cell-based, Mycoplasma pneumoniae; settings: five strains; 10 μmol/L AMP; PI 5 μg/mL in PBS; read every 2 min up to 20 min; triplicate
Experimental: We performed the PI uptake assays based on the previously described method with modification for M. pneumoniae. M. pneumoniae strains FH, M52, Mac, Bru, and M129-B7 were cultured as described above. Briefly, the 90 mL culture was done in PPLO-based medium for 6 days to observe the medium color change from red to yellow. The mycoplasma in the culture medium was centrifuged at 11,740g for 30 min at 4°C, and the precipitation was suspended in 20 mL phosphate buffered saline (PBS) by passing through a 60 mm-length 25-gauge needle (Top Corporation, Tokyo, Japan) three times. The suspension was centrifuged again at 11,740g for 30 min at 4°C, and 2.25 mL PBS was added to the precipitation. The 2× mycoplasma suspension was prepared by passing through a 60 mm-length 25-gauge needle five times. When using heat-killed M. pneumoniae (HKMp), the 2× suspension was heated at 95°C for 10 min. The 2× PI assay reaction mix based on PBS containing 20 μmol/L of an antimicrobial peptide or saline, and 10 μg/mL PI (Dojindo, Tokyo, Japan). Each assay was performed with a 96-well black flat-bottomed plate (PerkinElmer, Waltham, MA, USA) using a final cell volume of 100 μL prepared by mixing 2× mycoplasma suspension and 2× PI assay reaction mix at 1:1 in volume ratio. The intercalation fluorescence of PI was measured by using an Infinite 200 Pro F Plex microplate reader (Tecan, Zürich, Switzerland) every 2 min, with an excitation filter at 535 nm (half width: 25 nm) and an emission filter at 620 nm (half width: 20 nm). The averages and standard deviations of the fluorescent intensities was calculated, and normalised by an average fluorescence between 10 and 20 min of HKMp as 100% relative fluorescence, and by a minimum average fluorescence between 0 and 20 min of whole data as 0% relative fluorescence.

[5] = previously reported; cited from earlier work
[6] = test system: Pasteurella multocida; parameters: method as in PMID 29771981; settings: bovine pathogen; cited from earlier work
[7] = test system: M. bovis; settings: cited from earlier work
[8] = test system: Histophilus somni; parameters: method as in PMID 29771981; settings: bovine pathogen; cited from earlier work
[9] = test system: Mycoplasma pneumoniae FH; experiment: Killing assay, strain FH; settings: 30 μmol/L AMP, 3 days

H-TVIEVASKMCSKMRLLKGLCKSITKRFLRR-NH2 [NK2A, reference compound]
Effect in the colorimetric assay [1]: no difference
Concentration with statistically significant effect in the biofilm assay [2]: 30 µmol/L
Effective concentration against Mannheimia haemolytica [3]: 5 µmol/L
PI fluorescence compared with live Mp without peptide [4]: the PI fluorescence arose
Haemolysis (concentration with haemolytic effect) [5]: 5 µmol/L
Effective concentration against Pasteurella multocida [6]: 5 µmol/L
Effective concentration against M. bovis [7]: 20 µmol/L
Effective concentration against Histophilus somni [8]: 5 µmol/L
Killing assay result compared with saline ([9]; Welch's t test, p < 0.005): limited influence on the growth
Cell numbers (CFU/mL) after treatment with antimicrobial peptides, killing assay ([9]; initial 10^6 CFU/mL, triplicate, mean, saline 3.59×10^6): 2.87×10^6 CFU/mL
